Source: patent US8778871B2 (Takeda Pharmaceutical Company Limited, priority 2004, dated 2014)
Non-standard residues stand in square brackets, D forms with d. No end group written: not given here. *: point of attachment. Arg(NO2) = N=C(NCCC[C@H](N)C(=O)O)N[N+](=O)[O-]; 2Nal = N[C@@H](Cc1ccc2ccccc2c1)C(=O)O; Arg(Me) = CNC(=N)NCCC[C@H](N)C(=O)O; NMeN = CN[C@@H](CC(N)=O)C(=O)O; aThr = C[C@H](O)[C@H](N)C(=O)O; Tos = Cc1ccc(S(=O)(=O)*)cc1; Abu = CC[C@H](N)C(=O)O; Dap = NC[C@H](N)C(=O)O; azaGly = NNC(=O)O

target: T1, hOT7T175 (Homo sapiens, UniProt Q969F8, L364H); type: cell-based; conditions: hOT7T175/CHO, FLIPR, evaluation for 40 seconds after initiation of the reaction
T1 construct: expressed in transfected cells
T1 sequence (Q969F8 whole entry L364H): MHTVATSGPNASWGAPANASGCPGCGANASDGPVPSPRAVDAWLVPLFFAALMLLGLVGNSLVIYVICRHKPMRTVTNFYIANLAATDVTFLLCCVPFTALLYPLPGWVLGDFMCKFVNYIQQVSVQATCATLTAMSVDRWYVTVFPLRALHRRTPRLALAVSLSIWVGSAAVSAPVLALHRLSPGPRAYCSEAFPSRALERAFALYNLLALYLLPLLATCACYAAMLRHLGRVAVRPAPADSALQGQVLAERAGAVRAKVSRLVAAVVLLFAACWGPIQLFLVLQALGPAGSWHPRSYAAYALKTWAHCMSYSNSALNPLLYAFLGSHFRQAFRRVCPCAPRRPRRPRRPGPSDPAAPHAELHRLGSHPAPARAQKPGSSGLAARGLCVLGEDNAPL
Method: The intracellular Ca ion level-increasing activity was measured using FLIPR as in TEST EXAMPLE 2.

Q: Which “Specific Act. (EC50/MS10 EC50)” value does the source give for “D-Trp-Asn-Thr-Phe-AzaGly-Leu-Arg(Me)-Trp-NH2 ([dW]NTF[azaGly]L[Arg(Me)]W-NH2; N-terminus assumed; SMILES CNC(=N)NCCC[C@H](NC(=O)[C@H](CC(C)C)NC(=O)NNC(=O)[C@H](Cc1ccccc1)NC(=O)[C@@H](NC(=O)[C@H](CC(N)=O)NC(=O)[C@H](N)Cc1c[nH]c2ccccc12)[C@@H](C)O)C(=O)N[C@@H](Cc1c[nH]c2ccccc12)C(N)=O) [Compound No. 665]” here?
A: 1.1

Q: With “Ac-D-Tyr-D-Trp-Asp(NMe2)-Thr-Phe-AzaGly-Leu-Arg(Me)-Trp-NH2 [Compound No. 703]” as the compound, how does the “Specific Act. (EC50/MS10 EC50)” value read?
A: 3.7

Q: Which “Specific Act. (EC50/MS10 EC50)” value does the source give for “Ac-[dE][dW]NTF[azaGly]L[Arg(Me)]W-NH2 [Compound No. 622]” here?
A: 2.8

Q: With “Ac-[dY][dW]NTE[azaGly]L[Arg(Me)]W-NH2 [Compound No. 634]” as the compound, how does the “Specific Act. (EC50/MS10 EC50)” value read?
A: 10.5

Q: Which “Specific Act. (EC50/MS10 EC50)” value does the source give for `CNC(=N)NCCC[C@H](NC(=O)[C@H](CC(C)C)NC(=O)CNC(=O)[C@H](Cc1ccccc1)NC(=O)[C@H](CO)NC(=O)[C@H](CC(N)=O)NC(=O)[C@H](Cc1c[nH]c2ccccc12)NC(=O)[C@H](CC(N)=O)NC(=O)[C@@H](N)Cc1ccc(O)cc1)C(=O)N[C@@H](Cc1ccccc1)C(N)=O` [Compound No. 82] here?
A: 1.0

Q: For “Ac-[dY][dW][Dap](Ac)SF[azaGly]L[Arg(Me)]W-NH2 [Compound No. 584]”, which “Specific Act. (EC50/MS10 EC50)” value is on record?
A: 0.4

Q: How did the “Specific Act. (EC50/MS10 EC50)” value turn out when “Ac-[dY][dW][NMeN]TF[azaGly]L[Arg(Me)]W-NH2 [Compound No. 655]” was run?
A: 4.7

Q: How did the “Specific Act. (EC50/MS10 EC50)” value turn out when “Ac-D-Tyr-D-Trp-Asn-Thr-Phe-AzaGly-Leu-Arg(Me)-D-Trp-NH2 (Ac-[dY][dW]NTF[azaGly]L[Arg(Me)][dW]-NH2; SMILES CNC(=N)NCCC[C@H](NC(=O)[C@H](CC(C)C)NC(=O)NNC(=O)[C@H](Cc1ccccc1)NC(=O)[C@@H](NC(=O)[C@H](CC(N)=O)NC(=O)[C@@H](Cc1c[nH]c2ccccc12)NC(=O)[C@@H](Cc1ccc(O)cc1)NC(C)=O)[C@@H](C)O)C(=O)N[C@H](Cc1c[nH]c2ccccc12)C(N)=O) [Compound No. 689]” was run?
A: 2.3

Q: With “D-Arg-Acp-D-Tyr-D-Trp-Asn-Thr-Phe-AzaGly-Leu-Arg(Me)-Trp-NH2 [Compound No. 541]” as the compound, how does the “Specific Act. (EC50/MS10 EC50)” value read?
A: 2.0

Q: How did the “Specific Act. (EC50/MS10 EC50)” value turn out when “Ac-[dY][dW]NT[2Nal][azaGly]L[Arg(Me)]W-NH2 [Compound No. 694]” was run?
A: 1.7

Q: “Ac-[dY][dW]NTF[azaGly]L[Arg(NO2)]W-NH2 [Compound No. 605]” was tested. Which “Specific Act. (EC50/MS10 EC50)” value did it give?
A: 3.9

Q: Which “Specific Act. (EC50/MS10 EC50)” value does the source give for “Glycoloyl-D-Tyr-D-Trp-Asn-Thr-Phe-AzaGly-Leu-Arg(Me)-Trp-NH2 (Glycoloyl-[dY][dW]NTF[azaGly]L[Arg(Me)]W-NH2) [Compound No. 681]” here?
A: 1.2

Q: For “D-Trp-D-Pya(4)-Asn-Ser-Phe-AzaGly-Leu-Arg(Me)-Trp-NH2 [Compound No. 572]”, which “Specific Act. (EC50/MS10 EC50)” value is on record?
A: 0.7

Q: “D-Tyr-D-Pya(4)-Asn-Pro-Phe-AzaGly-Leu-Arg(Me)-Trp-NH2 [Compound No. 528]” was tested. Which “Specific Act. (EC50/MS10 EC50)” value did it give?
A: 1.4

Q: For “Glycoloyl-D-Trp-Asn-Thr-Phe-AzaGly-Leu-Arg(Me)-Trp-NH2 (Glycoloyl-[dW]NTF[azaGly]L[Arg(Me)]W-NH2) [Compound No. 680]”, which “Specific Act. (EC50/MS10 EC50)” value is on record?
A: 2.5

Q: Which “Specific Act. (EC50/MS10 EC50)” value does the source give for “Ac-D-Tyr-D-Trp-Asn-Thr-Phe-AzaGly-Leu-Arg(Me2)asym-Trp-NH2 [Compound No. 607]” here?
A: 2.2

Q: For “Ac-[dY][dW]NTF[azaGly]S[Arg(Me)]W-NH2 [Compound No. 644]”, which “Specific Act. (EC50/MS10 EC50)” value is on record?
A: 2.5

Q: Which “Specific Act. (EC50/MS10 EC50)” value does the source give for “Ac-[dY]WNT[dF][azaGly]L[Arg(Me)]W-NH2 [Compound No. 586]” here?
A: 0.3

Q: How did the “Specific Act. (EC50/MS10 EC50)” value turn out when “Ac-[dY][dT]NTF[azaGly]L[Arg(Me)]W-NH2 [Compound No. 628]” was run?
A: 4.4

Q: “Ac-D-Tyr-D-Pya(4)-Asn-Thr-D-Phe-AzaGly-Leu-Arg(Me)-Trp-NH2 [Compound No. 603]” was tested. Which “Specific Act. (EC50/MS10 EC50)” value did it give?
A: 1.7

Q: How did the “Specific Act. (EC50/MS10 EC50)” value turn out when “Ac-[dY][dW]NT[dF]GL[Arg(Me)]W-NH2 [Compound No. 601]” was run?
A: 3.1

Q: For “D-Arg-D-Arg-Acp-D-Tyr-D-Trp-Asn-Thr-Phe-AzaGly-Leu-Arg(Me)-Trp-NH2 [Compound No. 542]”, which “Specific Act. (EC50/MS10 EC50)” value is on record?
A: 1.4

Q: With “3-Phenylpropionyl-Asn-Aze(2)-Phe-AzaGly-Leu-Arg(Me)-Trp-NH2 [Compound No. 532]” as the compound, how does the “Specific Act. (EC50/MS10 EC50)” value read?
A: 1.0

Q: Which “Specific Act. (EC50/MS10 EC50)” value does the source give for “Ac-D-Tyr-D-Trp-Asn-Aze(2)-Phe-AzaGly-Leu-Arg(Me)-Trp-NH2 [Compound No. 563]” here?
A: 0.7

Q: How did the “Specific Act. (EC50/MS10 EC50)” value turn out when “Ac-[dY][dW]NT[dF][azaGly]L[Arg(Me)]W-NH2 [Compound No. 597]” was run?
A: 0.6

Q: “Arg-D-Tyr-D-Pya(4)-Asn-Ser-Phe-AzaGly-Leu-Arg(Me)-Trp-NH2 [Compound No. 536]” was tested. Which “Specific Act. (EC50/MS10 EC50)” value did it give?
A: 1.8

Q: How did the “Specific Act. (EC50/MS10 EC50)” value turn out when “Phenylacetyl-Asn-Ser-Phe-AzaGly-Leu-Arg(Me)-Trp-NH2 [Compound No. 519]” was run?
A: 2.4

Q: For “Ac-[dY][dW]NTF[azaGly]LR(Tos)W-NH2 [Compound No. 604]”, which “Specific Act. (EC50/MS10 EC50)” value is on record?
A: 6.3

Q: How did the “Specific Act. (EC50/MS10 EC50)” value turn out when “Ac-[dY][dW]NTF[azaGly]F[Arg(Me)]W-NH2 [Compound No. 643]” was run?
A: 2.5

Q: For “Ac-D-Tyr-D-Trp-Asn-Thr-Phe-AzaGly-Ile-Arg(Me)-Trp-NH2 (Ac-[dY][dW]NTF[azaGly]I[Arg(Me)]W-NH2; SMILES CC[C@H](C)[C@H](NC(=O)NNC(=O)[C@H](Cc1ccccc1)NC(=O)[C@@H](NC(=O)[C@H](CC(N)=O)NC(=O)[C@@H](Cc1c[nH]c2ccccc12)NC(=O)[C@@H](Cc1ccc(O)cc1)NC(C)=O)[C@@H](C)O)C(=O)N[C@@H](CCCNC(=N)NC)C(=O)N[C@@H](Cc1c[nH]c2ccccc12)C(N)=O) [Compound No. 678]”, which “Specific Act. (EC50/MS10 EC50)” value is on record?
A: 1.1

Q: “Ac-D-Tyr-D-Trp-Asn-Thr-Phe-AzaGly-Abu-Arg(Me)-Trp-NH2 (Ac-[dY][dW]NTF[azaGly][Abu][Arg(Me)]W-NH2; SMILES CC[C@H](NC(=O)NNC(=O)[C@H](Cc1ccccc1)NC(=O)[C@@H](NC(=O)[C@H](CC(N)=O)NC(=O)[C@@H](Cc1c[nH]c2ccccc12)NC(=O)[C@@H](Cc1ccc(O)cc1)NC(C)=O)[C@@H](C)O)C(=O)N[C@@H](CCCNC(=N)NC)C(=O)N[C@@H](Cc1c[nH]c2ccccc12)C(N)=O) [Compound No. 698]” was tested. Which “Specific Act. (EC50/MS10 EC50)” value did it give?
A: 2.2

Q: With “Ac-D-Tyr-D-Trp-Gly-Ser-Phe-AzaGly-Leu-Arg(Me)-Trp-NH2 (Ac-[dY][dW]GSF[azaGly]L[Arg(Me)]W-NH2; SMILES CNC(=N)NCCC[C@H](NC(=O)[C@H](CC(C)C)NC(=O)NNC(=O)[C@H](Cc1ccccc1)NC(=O)[C@H](CO)NC(=O)CNC(=O)[C@@H](Cc1c[nH]c2ccccc12)NC(=O)[C@@H](Cc1ccc(O)cc1)NC(C)=O)C(=O)N[C@@H](Cc1c[nH]c2ccccc12)C(N)=O) [Compound No. 686]” as the compound, how does the “Specific Act. (EC50/MS10 EC50)” value read?
A: 0.6

Q: With “3-Phenylpropionyl-Asn-D-Pro-Phe-AzaGly-Leu-Arg(Me)-Trp-NH2 [Compound No. 533]” as the compound, how does the “Specific Act. (EC50/MS10 EC50)” value read?
A: 9.7

Q: With “Ac-D-Tyr-Pya(4)-Asn-Thr-Phe-AzaGly-Leu-Arg(Me)-Trp-NH2 [Compound No. 624]” as the compound, how does the “Specific Act. (EC50/MS10 EC50)” value read?
A: 1.2

Q: How did the “Specific Act. (EC50/MS10 EC50)” value turn out when “Ac-[dY][dW]N[aThr]F[azaGly]L[Arg(Me)]W-NH2 [Compound No. 659]” was run?
A: 0.6
